Test results as given in ChEMBL document CHEMBL5653631, “A Potent and Selective ULK1 Inhibitor Suppresses Autophagy and Sensitizes Cancer Cells to Nutrient Stress” (iScience, 2018).

Experiments:
[1] = molecular target: Calcium/calmodulin-dependent protein kinase type II subunit beta (Homo sapiens) (UniProt Q13554); assay: Inhibition of human recombinant CaMK2b at 500 nM related to control ULK1
[2] = molecular target: Vascular endothelial growth factor receptor 2 (Homo sapiens) (UniProt P35968); assay: Inhibition of human recombinant KDR at 500 nM in presence of ATP by radiometric assay relative to control
[3] = molecular target: 3-phosphoinositide-dependent protein kinase 1 (Homo sapiens) (UniProt O15530); assay: Inhibition of human recombinant PDK1 at 500 nM in presence of ATP by radiometric assay relative to control
[4] = molecular target: T1, Serine/threonine-protein kinase 3 (Homo sapiens) (UniProt Q13188); assay: Inhibition of human recombinant MST2 at 15 nM related to control ULK1
T1 sequence (whole entry): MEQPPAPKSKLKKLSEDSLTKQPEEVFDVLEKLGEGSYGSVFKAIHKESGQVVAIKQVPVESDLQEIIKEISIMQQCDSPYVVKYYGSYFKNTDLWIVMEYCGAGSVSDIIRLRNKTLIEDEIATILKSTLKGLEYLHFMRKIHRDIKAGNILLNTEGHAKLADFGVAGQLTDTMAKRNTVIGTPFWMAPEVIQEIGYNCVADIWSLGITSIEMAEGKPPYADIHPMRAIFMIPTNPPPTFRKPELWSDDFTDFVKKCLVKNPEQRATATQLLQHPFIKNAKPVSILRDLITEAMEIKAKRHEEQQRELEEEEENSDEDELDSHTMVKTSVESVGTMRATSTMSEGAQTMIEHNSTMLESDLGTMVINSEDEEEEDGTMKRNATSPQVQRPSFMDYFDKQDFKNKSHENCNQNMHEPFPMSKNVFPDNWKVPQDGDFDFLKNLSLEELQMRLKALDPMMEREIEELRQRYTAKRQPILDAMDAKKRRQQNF

[5] = molecular target: Serine/threonine-protein kinase SIK2 (Homo sapiens) (UniProt Q9H0K1); assay: Inhibition of human recombinant QIK at 15 nM in presence of ATP by radiometric assay relative to control
[6] = molecular target: Serine/threonine-protein kinase pim-2 (Homo sapiens) (UniProt Q9P1W9); assay: Inhibition of human recombinant PIM2 at 15 nM related to control ULK1
[7] = molecular target: Wee1-like protein kinase 2 (Homo sapiens) (UniProt P0C1S8); assay: Inhibition of human recombinant Wee1B at 15 nM in presence of ATP by radiometric assay relative to control
[8] = molecular target: Activin receptor type-2A (Homo sapiens) (UniProt P27037); assay: Inhibition of human recombinant ACTR2 at 15 nM related to control ULK1
[9] = molecular target: T2, Testis-specific serine/threonine-protein kinase 4 (Homo sapiens) (UniProt Q6SA08); assay: Inhibition of human recombinant TSSK4 at 15 nM in presence of ATP by radiometric assay relative to control
T2 sequence (whole entry): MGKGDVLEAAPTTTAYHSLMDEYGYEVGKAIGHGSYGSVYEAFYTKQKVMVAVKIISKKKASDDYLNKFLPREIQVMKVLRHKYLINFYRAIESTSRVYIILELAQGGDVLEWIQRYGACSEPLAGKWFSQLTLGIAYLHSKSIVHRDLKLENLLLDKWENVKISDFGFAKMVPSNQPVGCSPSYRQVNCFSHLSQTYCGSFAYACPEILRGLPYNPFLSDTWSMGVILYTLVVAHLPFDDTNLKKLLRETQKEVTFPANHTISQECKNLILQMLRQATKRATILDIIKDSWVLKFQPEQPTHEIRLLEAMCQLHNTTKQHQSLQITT

[10] = molecular target: T3, Serine/threonine-protein kinase PLK4 (Homo sapiens) (UniProt O00444); assay: Inhibition of human recombinant PLK4 at 15 nM in presence of ATP by radiometric assay relative to control
T3 sequence (whole entry): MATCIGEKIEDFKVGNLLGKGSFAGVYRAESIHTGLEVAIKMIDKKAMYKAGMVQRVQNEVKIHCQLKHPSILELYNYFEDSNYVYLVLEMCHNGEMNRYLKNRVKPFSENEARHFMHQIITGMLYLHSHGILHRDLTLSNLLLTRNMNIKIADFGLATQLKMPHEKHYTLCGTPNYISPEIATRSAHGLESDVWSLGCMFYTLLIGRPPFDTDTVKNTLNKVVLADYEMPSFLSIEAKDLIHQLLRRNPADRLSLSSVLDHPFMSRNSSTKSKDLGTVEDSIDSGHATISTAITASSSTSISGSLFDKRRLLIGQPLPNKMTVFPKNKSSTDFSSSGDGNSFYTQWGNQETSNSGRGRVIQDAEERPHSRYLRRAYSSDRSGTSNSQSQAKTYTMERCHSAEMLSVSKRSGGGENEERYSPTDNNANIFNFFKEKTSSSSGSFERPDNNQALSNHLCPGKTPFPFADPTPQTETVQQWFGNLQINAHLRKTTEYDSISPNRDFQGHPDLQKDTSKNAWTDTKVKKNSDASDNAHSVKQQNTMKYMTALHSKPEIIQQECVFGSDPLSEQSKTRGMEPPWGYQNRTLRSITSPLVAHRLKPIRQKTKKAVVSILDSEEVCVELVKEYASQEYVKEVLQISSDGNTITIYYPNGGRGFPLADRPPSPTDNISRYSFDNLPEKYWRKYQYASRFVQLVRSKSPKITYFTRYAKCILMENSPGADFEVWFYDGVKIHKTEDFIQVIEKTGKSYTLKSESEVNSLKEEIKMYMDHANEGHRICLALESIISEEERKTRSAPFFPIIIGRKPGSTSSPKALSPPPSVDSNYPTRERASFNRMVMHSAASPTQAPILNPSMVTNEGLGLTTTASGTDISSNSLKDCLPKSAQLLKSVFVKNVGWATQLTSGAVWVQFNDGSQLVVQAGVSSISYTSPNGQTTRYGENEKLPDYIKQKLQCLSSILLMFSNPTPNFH

[11] = molecular target: Protein kinase C iota type (Homo sapiens) (UniProt P41743); assay: Inhibition of human recombinant PKCi at 40 nM in presence of ATP by radiometric assay relative to control
[12] = molecular target: Fibroblast growth factor receptor 1 (Homo sapiens) (UniProt P11362); assay: Inhibition of human recombinant FGFR1 at 40 nM related to control ULK1
[13] = molecular target: High affinity nerve growth factor receptor (Homo sapiens) (UniProt P04629); assay: Inhibition of human recombinant TRKA at 40 nM in presence of ATP by radiometric assay relative to control
[14] = molecular target: Serine/threonine-protein kinase NIM1 (Homo sapiens) (UniProt Q8IY84); assay: Inhibition of human recombinant NIM1 at 40 nM in presence of ATP by radiometric assay relative to control
[15] = molecular target: Proto-oncogene tyrosine-protein kinase Src (Homo sapiens) (UniProt P12931); assay: Inhibition of human recombinant SRC at 40 nM in presence of ATP by radiometric assay relative to control
[16] = organism: Homo sapiens; assay: Inhibition of human recombinant CK1d at 40 nM in presence of ATP by radiometric assay relative to control

Which fold change (FC) [1] does the source give for `CNC(=O)c1ccccc1Oc1nc(Nc2cc(OC)c(OC)c(OC)c2)ncc1Br` here?
The fold change (FC) was 0.

And the inhibition [2]?
Its inhibition is 0%.

What about the inhibition [3] of the same compound?
The inhibition was 4%.

What does the source list for `CC(C)[C@H](NC(=O)c1cc(-c2cnn3cc(-c4ccc(OCCN5CCCCC5)cc4)cnc23)cs1)C(F)(F)F`?
fold change (FC) [4]: 0.03; inhibition [5]: 90%; fold change (FC) [6]: 0; inhibition [7]: 11%; fold change (FC) [8]: 0.05; inhibition [9]: 0%; inhibition [10]: 31%

`O=C(N[C@@H](C1CC1)C(F)(F)F)c1cc(-c2cnn3cc(-c4ccc(F)cc4)cnc23)cs1` was tested. Which inhibition [11] did it give?
Its inhibition is 0%.

What about the fold change (FC) [12] of the same compound?
The fold change (FC) was 0.

And the inhibition [13]?
The inhibition was 0%.

And the inhibition [14]?
The inhibition was 0%.

And the inhibition [15]?
The inhibition was 2%.

And the inhibition [16]?
Its inhibition is 3%.
